Reference: patent US20180106727A1, “ULTRA-HIGH-SENSITIVE ASSAY OF PROTEIN AND NUCLEIC ACID AND KIT, AND NOVEL ENZYME SUBSTRATE” (priority 2011, published 2018)
Where two headings read alike, the source gives them in different places.

Key:
[1] = target: β-galactosidase (Escherichia coli, UniProt P00722); settings: β-Gal assay
Experimental: 0.1 M pyrophosphate buffer solution (pH 9.0); 1.2 mM thio-NAD; 3.6 mM NADH; 40 U/mL 3α-hydroxysteroid dehydrogenase
To a flat-bottomed microplate well, 25 μL of a phosphate buffer solution (pH 7.3) containing the standard substance (β-galactosidase) in a range of 0 to 200 pg/ml was added, and subsequently, 25 μL of Reaction Test Solution A was added to the well, respectively. The reaction solution was mixed, and the microplate was incubated at 37° C. for 60 minutes. Then, 50 μL of Reaction Test Solution B was added to each well, respectively, and the absorbance was measured for 30 minutes using a 405 nm filter with a microplate reader (MTP-500 manufactured by CORONA CORPORATION) while warming the microplate to 37° C. The amount of the absorbance change for 30 minutes was plotted with respect to the concentrations of the standard substance.
To a flat-bottomed microplate well, 50 μL of a phosphate buffer solution (pH 7.7) containing the standard substance (β-galactosidase) in a range of 0 to 250 pg/ml was added, and subsequently, 50 μL of Reaction Test Solution was added to each well, respectively. The absorbance was measured for 120 minutes using a 405 nm filter with a microplate reader (MTP-500 manufactured by CORONA CORPORATION) while warming the microplate to 37° C. The amount of the absorbance change for 120 minutes was plotted with respect to the concentrations of the standard substance.
0.1 M pyrophosphate buffer solution (pH 9.0); 4.8 mM thio-NAD; 0.4 mM NADH; 40 U/mL 3α-hydroxysteroid dehydrogenase
To a flat-bottomed microplate well, 25 μL of a phosphate buffer solution (pH 7.5) containing the standard substance (β-galactosidase) in a range of 0 to 200 pg/mL was added, and subsequently, 25 μL of Reaction Test Solution A was added to the well, respectively. The reaction solution was mixed, and the microplate was incubated at 37° C. for 60 minutes. Then, 50 μL of Reaction Test Solution B was added to each well, respectively, and the absorbance was measured for 30 minutes using a 405 nm filter with a microplate reader (MTP-500 manufactured by CORONA CORPORATION) while warming the microplate to 37° C. The amount of the absorbance change for 30 minutes was plotted with respect to the concentrations of the standard substance.
0.1 M pyrophosphate buffer solution (pH 9.8); 1.2 mM thio-NAD; 1 mM NADH; 40 U/mL 3α-hydroxysteroid dehydrogenase
To a flat-bottomed microplate well, 25 μL of a phosphate buffer solution (pH 7.5) containing the standard substance (β-galactosidase) in a range of 0 to 200 pg/mL was added, and subsequently, 25 μL of Reaction Test Solution A was added to the well, respectively. The reaction solution was mixed, and the microplate was incubated at 37° C. for 60 minutes.

[2] = system: 3α-hydroxysteroid dehydrogenase; assay: Rotation numbers of thio-NAD cycling reactions with 3α-hydroxyandrostanes; format: biochemical
Experimental: The cycling system using thio-NAD(P) in the enzymatic cycling system is a unique cycling system that appeared relatively recently. With this system, the cycling is performed that is, thio-NAD(P)/thio-NAD(P)H using dehydrogenase (DH) with NAD(P)/NAD(P)H as a co-enzyme under conditions of coexistence of NAD(P)/NAD(P)H and its analog, and the amplification and the quantification are performed with thio-NAD(P)H (maximum absorption wavelength: 400 nm, molar absorption coefficient=11,900) as a substrate of dehydrogenase. The principle for measurement of the thio-NAD(P)cycling system is as described below.

[3] = system: 3α-hydroxysteroid dehydrogenase; assay: Dehydrogenation reaction of androsterone, reaction rate with thio-NAD versus NAD as co-enzyme; format: biochemical
Source text: The substrate for the cycling is preferably those having fast enzyme reaction rate (having high activity for the substrate) and reacting even at a low concentration (having low Km value). In addition, a desirable property as the dehydrogenase is the reaction rate when using thio-NAD(P) as a co-enzyme. In the dehydrogenation reaction of androsterone by other many dehydrogenases, the reaction rate when thio-NAD is used as a co-enzyme is within several % of the reaction rate when NAD is used, while with 3α-hydroxysteroid dehydrogenase, the reaction rate with thio-NAD is about 59% of the reaction rate with NAD. Thus, 3α-hydroxysteroid dehydrogenase has a desirable property as the cycling enzyme of the present invention. Furthermore, widely used alkaline phosphatase (ALP) can be used as the labeling enzyme to be combined, and the combination with alkaline phosphatase is preferable also in a point of easy synthesis of a phosphate ester of an androsterone derivative at the position 3 that is a substrate of alkaline phosphatase.

[4] = conventional substrate, no cycling method printed
[5] = relative to 5α-Androsterone = 100
[6] = thio-NAD cycling, compound as substrate

β-galactosidase, sequence (P00722 2-1024): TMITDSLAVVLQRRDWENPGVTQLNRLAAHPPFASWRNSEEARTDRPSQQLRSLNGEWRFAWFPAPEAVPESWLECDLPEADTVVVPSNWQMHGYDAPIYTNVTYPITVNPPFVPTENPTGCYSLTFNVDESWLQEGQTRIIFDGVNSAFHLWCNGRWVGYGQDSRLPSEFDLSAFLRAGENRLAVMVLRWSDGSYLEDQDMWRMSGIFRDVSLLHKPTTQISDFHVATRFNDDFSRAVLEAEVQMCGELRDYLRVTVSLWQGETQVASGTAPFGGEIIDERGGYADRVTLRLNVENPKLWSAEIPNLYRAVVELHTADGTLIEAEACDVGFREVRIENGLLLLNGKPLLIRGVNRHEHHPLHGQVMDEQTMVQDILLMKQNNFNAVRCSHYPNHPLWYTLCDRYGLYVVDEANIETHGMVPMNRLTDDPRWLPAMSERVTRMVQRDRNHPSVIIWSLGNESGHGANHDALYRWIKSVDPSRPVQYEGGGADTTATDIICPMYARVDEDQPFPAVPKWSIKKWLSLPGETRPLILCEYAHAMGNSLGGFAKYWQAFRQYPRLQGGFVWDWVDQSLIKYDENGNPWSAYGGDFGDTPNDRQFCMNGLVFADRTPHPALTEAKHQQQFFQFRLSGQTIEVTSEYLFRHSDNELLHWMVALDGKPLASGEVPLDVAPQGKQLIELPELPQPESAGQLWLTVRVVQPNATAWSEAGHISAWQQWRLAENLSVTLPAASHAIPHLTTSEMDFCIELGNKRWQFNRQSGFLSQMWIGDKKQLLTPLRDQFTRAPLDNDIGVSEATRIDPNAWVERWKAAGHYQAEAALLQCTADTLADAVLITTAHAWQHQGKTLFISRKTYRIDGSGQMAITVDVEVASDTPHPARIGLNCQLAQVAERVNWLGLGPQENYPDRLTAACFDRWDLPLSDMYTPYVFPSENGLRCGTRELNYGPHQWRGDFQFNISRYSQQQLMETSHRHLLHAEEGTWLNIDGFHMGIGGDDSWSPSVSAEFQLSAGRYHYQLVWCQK

## Cc1cc(=O)oc2cc(O[C@@H]3O[C@H](CO)[C@H](O)[C@H](O)[C@H]3O)ccc12 [4-MUG, reference compound]
[1]; [4]
  Detection limit: 9.76e-18 mol
  Quantification limit: 3.25e-17 mol

## C=C1CC[C@H]2[C@@H]3CC[C@H]4C[C@H](O)CC[C@]4(C)[C@H]3CC[C@]12C [5α-17-CH2, 3α-Hydroxy-17-methylene-5α-Androstane]
[2]; [5]
  Rotation number, Relative value (%): 49%
[2]; [6]
  Rotation number of cycling reaction: 308 Cycle/min

## C[C@H]1CC[C@H]2[C@@H]3CC[C@H]4C[C@H](O)CC[C@]4(C)[C@H]3CC[C@]12C [5α-17-CH3, 3α-Hydroxy-17β-methyl-5α-Androstane]
[2]; [5]
  Rotation number, Relative value (%): 32%
[2]; [6]
  Rotation number of cycling reaction: 200 Cycle/min

## C[C@@]12CCC[C@H]1[C@@H]1CC[C@H]3C[C@H](O)CC[C@]3(C)[C@H]1CC2 [5α-17-deoxo, 3α-Hydroxy-5α-Androstane]
[2]; [5]
  Rotation number, Relative value (%): 39%
[2]; [6]
  Rotation number of cycling reaction: 241 Cycle/min

## C[C@]12CC[C@@H](O[C@@H]3O[C@H](CO)[C@H](O)[C@H](O)[C@H]3O)C[C@@H]1CC[C@@H]1[C@@H]2CC[C@]2(C)C(=O)CC[C@@H]12 [5α-AG, 5α-androsterone 3-β-galactoside]
[1]; Two-steps
  Detection limit: 3.89e-19 mol
  Quantification limit: 1.3e-18 mol

## C[C@]12CC[C@@H](O)C[C@@H]1CC[C@@H]1[C@@H]2CC[C@]2(C)C(=O)CC[C@@H]12 [5α-Androsterone, reference compound]
[2]
  Rotation number, Relative value (%): 100%

## C[C@]12CCC(=O)C[C@@H]1CC[C@@H]1[C@@H]2CC[C@]2(C)[C@@H](O)CC[C@@H]12 [5α-DHT, 5α-Dihydrotestosterone, reference compound]
[2]
  Rotation number of cycling reaction: 535 Cycle/min
  Rotation number, Relative value (%): 86%

## C[C@H]1CC[C@H]2[C@@H]3CC[C@@H]4C[C@H](O)CC[C@]4(C)[C@H]3CC[C@]12C [5β-17-CH3, 3α-Hydroxy-17β-methyl-5β-Androstane]
[2]; [5]
  Rotation number, Relative value (%): 18%
[2]; [6]
  Rotation number of cycling reaction: 114 Cycle/min

## CO[C@H]1CC[C@H]2[C@@H]3CC[C@@H]4C[C@H](O)CC[C@]4(C)[C@H]3CC[C@]12C [5β-17β-OCH3]
[2]; [5]
  Rotation number, Relative value (%): 74%
[2]; [6]
  Rotation number of cycling reaction: 458 Cycle/min

## C[C@]12CC[C@@H](O[C@@H]3O[C@H](CO)[C@H](O)[C@H](O)[C@H]3O)C[C@H]1CC[C@@H]1[C@@H]2CC[C@]2(C)C(=O)CC[C@@H]12 [5β-AG, 5β-Androsterone-3β-D-Galactoside]
[1]; One-step
  Detection limit: 3.31e-19 mol
  Quantification limit: 1.1e-18 mol
[1]; Two-steps
  Detection limit: 7.48e-20 mol
  Quantification limit: 2.49e-19 mol

## C[C@]12CC[C@@H](O)C[C@H]1CC[C@@H]1[C@@H]2CC[C@]2(C)C(=O)CC[C@@H]12 [5β-Androsterone, reference compound]
[2]
  Rotation number of cycling reaction: 384 Cycle/min
  Rotation number, Relative value (%): 62%

## CO[C@H]1CC[C@H]2[C@@H]3CC[C@@H]4C[C@H](O[C@@H]5O[C@H](CO)[C@H](O)[C@H](O)[C@H]5O)CC[C@]4(C)[C@H]3CC[C@]12C [17-OMe 5β-AG]
[1]; One-step
  Detection limit: 3.21e-19 mol
  Quantification limit: 1.07e-18 mol
[1]; Two-steps
  Detection limit: 1.09e-19 mol
  Quantification limit: 3.64e-19 mol

## C[C@H](CCC(=O)NCC(=O)O)[C@H]1CC[C@H]2[C@@H]3[C@H](O)C[C@@H]4C[C@H](O)CC[C@]4(C)[C@H]3CC[C@]12C [Glycochenodeoxycholate, Sodium glycochenodoxycholate, reference compound]
[2]; [5]
  Rotation number, Relative value (%): 21%
[2]; [6]
  Rotation number of cycling reaction: 129 Cycle/min

## O=[N+]([O-])c1ccccc1O[C@@H]1O[C@H](CO)[C@H](O)[C@H](O)[C@H]1O [ONPG, o-Nitrophenyl β-D-Galactopyranoside, reference compound]
[1]; [4]
  Detection limit: 4.5e-17 mol
  Quantification limit: 1.5e-16 mol

## C[C@]12CC[C@@H](OP(=O)(O)O)C[C@@H]1CC[C@@H]1[C@@H]2CC[C@]2(C)C(=O)CC[C@@H]12 [androsterone 3-phosphate, reference compound]
[2]
  Effect of the substrate on the cycling reaction: inhibition of the substrate on the cycling reaction

## NC(=S)c1ccc[n+]([C@@H]2O[C@H](COP(=O)([O-])OP(=O)(O)OC[C@H]3O[C@@H](n4cnc5c(N)ncnc54)[C@H](O)[C@@H]3O)[C@@H](O)[C@H]2O)c1 [thio-NAD]
[3]
  Reaction rate with thio-NAD relative to the reaction rate with NAD: about 59%
